The text below walks through data of ChEMBL document CHEMBL1132092, “Structure-activity relationship at the proximal phenyl group in a series of non-peptidyl N-type calcium channel antagonists” (Bioorg Med Chem Lett, 1999).

This assay deals with Voltage-dependent N-type calcium channel subunit alpha-1B (Homo sapiens, UniProt Q00975). Nature of the assay: Inhibition of N-type Voltage Sensitive Calcium Channel (VSCC) using IMR-32 assay. The format is functional.
Sequence of Voltage-dependent N-type calcium channel subunit alpha-1B (Q00975 whole entry): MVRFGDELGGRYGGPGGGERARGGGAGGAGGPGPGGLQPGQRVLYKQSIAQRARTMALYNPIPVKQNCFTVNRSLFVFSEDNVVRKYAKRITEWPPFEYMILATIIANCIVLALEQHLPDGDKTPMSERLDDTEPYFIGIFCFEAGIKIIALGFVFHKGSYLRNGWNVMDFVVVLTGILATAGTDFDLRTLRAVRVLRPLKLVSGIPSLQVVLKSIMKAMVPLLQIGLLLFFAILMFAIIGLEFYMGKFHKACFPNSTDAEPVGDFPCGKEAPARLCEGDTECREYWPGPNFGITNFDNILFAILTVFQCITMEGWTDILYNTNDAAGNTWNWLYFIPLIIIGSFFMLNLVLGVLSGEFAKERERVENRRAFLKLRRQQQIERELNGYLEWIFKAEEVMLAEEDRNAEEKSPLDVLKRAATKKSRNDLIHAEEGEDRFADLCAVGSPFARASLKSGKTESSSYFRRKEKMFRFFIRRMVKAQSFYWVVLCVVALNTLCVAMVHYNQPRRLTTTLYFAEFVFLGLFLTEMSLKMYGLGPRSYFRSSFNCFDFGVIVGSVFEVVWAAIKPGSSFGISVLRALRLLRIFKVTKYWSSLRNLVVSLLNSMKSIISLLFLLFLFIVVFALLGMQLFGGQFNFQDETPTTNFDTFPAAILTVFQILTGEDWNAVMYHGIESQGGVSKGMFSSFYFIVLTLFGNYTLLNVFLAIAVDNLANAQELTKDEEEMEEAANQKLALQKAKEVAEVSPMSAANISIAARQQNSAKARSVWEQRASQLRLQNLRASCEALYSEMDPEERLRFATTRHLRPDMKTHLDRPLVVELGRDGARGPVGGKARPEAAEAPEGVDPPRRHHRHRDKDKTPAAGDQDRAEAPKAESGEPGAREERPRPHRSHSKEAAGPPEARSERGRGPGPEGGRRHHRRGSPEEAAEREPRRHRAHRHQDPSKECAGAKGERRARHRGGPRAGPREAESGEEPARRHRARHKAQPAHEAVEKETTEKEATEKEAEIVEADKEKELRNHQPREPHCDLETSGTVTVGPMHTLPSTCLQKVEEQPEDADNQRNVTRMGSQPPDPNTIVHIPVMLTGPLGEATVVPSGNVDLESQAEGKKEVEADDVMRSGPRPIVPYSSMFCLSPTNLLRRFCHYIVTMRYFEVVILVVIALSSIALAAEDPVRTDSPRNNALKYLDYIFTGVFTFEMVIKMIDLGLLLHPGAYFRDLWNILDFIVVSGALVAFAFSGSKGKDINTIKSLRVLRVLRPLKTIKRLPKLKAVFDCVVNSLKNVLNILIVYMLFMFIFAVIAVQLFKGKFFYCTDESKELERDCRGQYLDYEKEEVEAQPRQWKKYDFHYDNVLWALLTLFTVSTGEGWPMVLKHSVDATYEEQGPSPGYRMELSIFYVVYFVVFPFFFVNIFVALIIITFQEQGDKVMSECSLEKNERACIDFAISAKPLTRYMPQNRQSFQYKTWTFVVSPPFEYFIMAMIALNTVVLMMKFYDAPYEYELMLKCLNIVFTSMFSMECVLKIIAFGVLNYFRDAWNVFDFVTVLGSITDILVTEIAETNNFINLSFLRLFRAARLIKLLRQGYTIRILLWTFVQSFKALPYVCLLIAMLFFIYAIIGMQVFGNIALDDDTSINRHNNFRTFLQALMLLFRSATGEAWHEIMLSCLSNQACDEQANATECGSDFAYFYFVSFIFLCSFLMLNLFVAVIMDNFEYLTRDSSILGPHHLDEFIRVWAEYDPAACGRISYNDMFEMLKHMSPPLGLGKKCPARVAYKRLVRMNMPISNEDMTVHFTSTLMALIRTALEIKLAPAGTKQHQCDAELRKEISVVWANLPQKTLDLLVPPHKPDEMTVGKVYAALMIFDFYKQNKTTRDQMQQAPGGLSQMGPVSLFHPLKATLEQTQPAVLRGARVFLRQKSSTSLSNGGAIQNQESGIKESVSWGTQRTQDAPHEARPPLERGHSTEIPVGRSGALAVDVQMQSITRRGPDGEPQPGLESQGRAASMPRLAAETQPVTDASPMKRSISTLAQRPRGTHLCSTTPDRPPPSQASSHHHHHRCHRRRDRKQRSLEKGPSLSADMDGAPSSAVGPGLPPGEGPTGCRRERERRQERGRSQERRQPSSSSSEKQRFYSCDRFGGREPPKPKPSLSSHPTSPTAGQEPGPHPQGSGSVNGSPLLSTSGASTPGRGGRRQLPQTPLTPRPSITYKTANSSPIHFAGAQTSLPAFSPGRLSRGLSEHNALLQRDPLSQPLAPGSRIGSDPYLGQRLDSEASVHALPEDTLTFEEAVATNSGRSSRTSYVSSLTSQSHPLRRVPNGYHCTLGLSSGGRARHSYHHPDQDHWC

For orientation: IC50 means the concentration at which inhibition is half-maximal. Take `CC(C)CCN(c1ccc(NCc2cnc[nH]2)cc1)C1CCN(C(=O)[C@H](CC(C)C)NC(=O)N2CCCCCC2)CC1`: the IC50 was determined as 120000 nM. As for `CC(C)=CCN(c1ccc(OCc2ccccc2)cc1)C1CCN(C(=O)[C@H](CC(C)C)NC(=O)N2CCCCCC2)CC1`, the figure is 340 nM; as for `CC(C)=CCN(c1ccc(CCc2ccccc2)cc1)C1CCN(C(=O)[C@H](CC(C)C)NC(=O)N2CCCCCC2)CC1`, 670 nM. Turning to `CC(C)CCN(c1ccc(O)cc1)C1CCN(C(=O)[C@H](CC(C)C)NC(=O)N2CCCCCC2)CC1`, the IC50 is 1100 nM. In the case of `CC(C)=CCN(c1ccccc1)C1CCN(C(=O)[C@H](CC(C)C)NC(=O)N2CCCCCC2)CC1` it was 1000 nM; in that of `CC(C)CCN(c1ccc(OCc2ccccc2)cc1)C1CCN(C(=O)[C@H](CC(C)C)NC(=O)N2CCCCCC2)CC1`, 190 nM.
